# Measured values reported in paper PMC4900804, “Allosteric modulation in monomers and oligomers of a G protein-coupled receptor” (eLife, 2016).
# Positions count from the first letter of the chain named. “And” between values parts separate entries of the source, which are not always exact repeats. Identical values can stand only once. Like-named read-outs stand apart in the source and are kept apart here.
# Experiments:
# [1] = target: T1, FlAsH-reacted mCh-M2-FCM in CHO cells (Homo sapiens, UniProt P08172, INS166FLNCCPGCCMEP); test: FRET between FlAsH and mCherry in the sensor, ligand-dependent change in Eapp; assay type: cell-based; details: ligand 1 mM
# T1 sequence (P08172 with tags, fused parts or gaps): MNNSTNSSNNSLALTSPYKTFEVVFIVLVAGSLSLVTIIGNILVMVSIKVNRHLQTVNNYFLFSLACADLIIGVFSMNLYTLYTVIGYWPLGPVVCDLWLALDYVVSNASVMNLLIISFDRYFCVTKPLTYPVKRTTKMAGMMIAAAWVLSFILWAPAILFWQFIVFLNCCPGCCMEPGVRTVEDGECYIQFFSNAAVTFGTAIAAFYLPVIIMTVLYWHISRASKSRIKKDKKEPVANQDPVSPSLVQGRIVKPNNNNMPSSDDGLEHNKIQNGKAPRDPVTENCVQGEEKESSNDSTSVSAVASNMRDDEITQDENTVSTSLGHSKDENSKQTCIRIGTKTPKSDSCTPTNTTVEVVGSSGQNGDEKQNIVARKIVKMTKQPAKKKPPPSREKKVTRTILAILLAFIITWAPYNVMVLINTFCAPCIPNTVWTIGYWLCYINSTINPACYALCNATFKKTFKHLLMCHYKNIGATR
# [2] = target: T2, eGFP-M2 solubilized in digitonin–cholate (Homo sapiens, UniProt P08172); test: Time-resolved fluorescence and fluorescence anisotropy of eGFP-tagged M2 receptor; details: eGFP-M2 + carbachol 1 mM
# T2 sequence (P08172 1-466): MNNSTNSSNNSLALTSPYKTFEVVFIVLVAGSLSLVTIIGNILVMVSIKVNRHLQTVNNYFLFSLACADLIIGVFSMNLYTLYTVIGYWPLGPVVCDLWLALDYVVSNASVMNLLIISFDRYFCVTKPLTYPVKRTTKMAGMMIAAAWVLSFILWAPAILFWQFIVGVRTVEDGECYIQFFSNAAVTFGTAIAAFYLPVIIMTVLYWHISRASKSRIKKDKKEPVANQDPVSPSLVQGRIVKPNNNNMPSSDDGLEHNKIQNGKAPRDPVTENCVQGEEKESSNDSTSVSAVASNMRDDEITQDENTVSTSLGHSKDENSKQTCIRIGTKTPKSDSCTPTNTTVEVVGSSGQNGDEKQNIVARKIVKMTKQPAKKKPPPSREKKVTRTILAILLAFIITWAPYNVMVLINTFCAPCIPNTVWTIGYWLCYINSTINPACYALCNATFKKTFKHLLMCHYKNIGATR
# [3] = target: T3, M2 receptor monomers purified from Sf9 cells (Homo sapiens, UniProt P08172); assay type: binding
# T3 sequence (P08172 1-466): T2 sequence (P08172 1-466)
# [4] = system: M2 receptor in Sf9 membranes; details: cited from earlier work
# [5] = target: T4, copurified heteromer of M2-ECL2+ve and M2-D103A (Homo sapiens, UniProt P08172, D103A/D173R/E172K/E175K); test: Effect of gallamine on the binding of [3H]NMS to purified hetero-oligomers; details: [3H]NMS 10 nM; 21 hr at 30°C
# T4 construct: hexahistidine (His6) (N); made in house; host or cells: co-transfected CHO cells; purified on Ni2+-NTA and anti-FLAG resins
# T4 sequence (P08172 1-466 E172K/D173R/E175K): T2 sequence (P08172 1-466) with E172K, D173R, E175K
# T4 sequence (P08172 1-466 D103A): T2 sequence (P08172 1-466) with D103A
# [6] = target: T3, M2 receptor monomers purified from Sf9 cells; test: Effect of allosteric modulators on the binding of [3H]NMS to purified monomers
# [7] = target: M2 receptors extracted from porcine sarcolemmal membranes (Sus scrofa, UniProt P06199)
# [8] = target: M2 receptor in membranes from CHO cells (Homo sapiens, UniProt P08172)
# [9] = system: M2 receptors (alanine for aspartic acid at position 103) in HEK293 membranes; details: cited from earlier work
# [10] = target: mCh-M2(D103A)-FCM (human) (UniProt P08172)
# [11] = gallamine, [3H]NMS 10 nM, 21 h at 30 °C, n = 1
# M2 receptors extracted from porcine sarcolemmal membranes, sequence (P06199 whole entry): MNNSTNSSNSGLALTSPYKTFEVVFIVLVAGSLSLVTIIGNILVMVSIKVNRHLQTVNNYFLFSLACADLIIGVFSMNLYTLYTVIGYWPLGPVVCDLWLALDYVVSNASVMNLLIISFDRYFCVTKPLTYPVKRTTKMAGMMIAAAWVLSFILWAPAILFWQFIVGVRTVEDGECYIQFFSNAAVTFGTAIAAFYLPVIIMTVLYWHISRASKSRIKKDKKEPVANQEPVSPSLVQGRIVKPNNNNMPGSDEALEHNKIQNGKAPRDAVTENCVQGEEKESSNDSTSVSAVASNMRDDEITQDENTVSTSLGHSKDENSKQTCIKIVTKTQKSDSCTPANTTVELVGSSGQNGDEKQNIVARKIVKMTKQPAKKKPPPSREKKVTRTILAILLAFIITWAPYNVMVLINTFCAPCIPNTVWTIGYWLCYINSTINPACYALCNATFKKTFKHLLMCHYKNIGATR
molecule,measurement,setting,value
C[N+](C)(C)CCOC(N)=O [carbachol],"∆Eapp, mean change in FRET efficiency ± S.D.",[1],−21.6 ± 11.2%
same,Fluorescence lifetime (τ),[2],2.5 ± 0.1 ns
same,Rotational correlation time (φ),[2],43 ± 5 ns
CC[N+](CC)(CC)CCOc1cccc(OCC[N+](CC)(CC)CC)c1OCC[N+](CC)(CC)CC [gallamine],F1,[3],1.00
same,"log K1 (Equation 2), dose-dependence of kobsd/k0",[4],−5.99 ± 0.31
same,"log K2 (Equation 2), dose-dependence of kobsd/k0",[4],−4.35 ± 0.03
same,"log K2 (Equation 2, n = 3)",[5],4.29 ± 0.37
same,F1,[6]; [11],1.00
same,nH(1),[6]; [11],1.00 ± 0.06
O=C1C[C@@H]2OCC=C3CN4CC[C@]56c7ccccc7N1[C@H]5[C@H]2[C@H]3C[C@H]46 [strychnine],F2,[7],1.57 and 2
same,F1,[6],1.00
same,nH(1),[6],0.62 ± 0.07 and 1.23 ± 0.07
same,F2,[8],2.21 ± 0.16
same,nH(1),[8],0.72 ± 0.06 and 0.98 ± 0.14 and 1.20 ± 0.07
same,nH(2),[8],1.44 ± 0.09 and 1.07 ± 0.08
N-[^3H]methylscopolamine [[^3H]NMS],specific binding of radioligand,[9],prevent the specific binding
eGFP-M2 (from UniProt P08172 1-466) (receptor),"NMS (1 μM)-dependent increase in the FRET efficiency between FlAsH and mCherry of the binding-deficient sensor in CHO cells that display eGFP, FlAsH and mCherry (percentage points)",[10],5.3
